In paper PMC7241567 (Journal of Enzyme Inhibition and Medicinal Chemistry, 2020):
Entries after “also recorded” stand apart in the source; their conditions may differ.

Key:
Format in all cases: biochemical
FLT3 (F594_R595 ins R) = molecular target: T1, FLT3 (F594_R595 ins R) (Homo sapiens, UniProt P36888, INS594R); assay: Enzymatic activity against FLT3 mutants
T1 construct: purchased Reaction Biology Corp. (Kinase HotSpot service)

c-Kit = molecular target: T2, c-Kit (Homo sapiens, UniProt P10721); assay: Reaction Biology Kinase HotSpot radiometric kinase assay
T2 construct: purchased Reaction Biology Corp. (Kinase HotSpot service)

MEK1 = molecular target: T3, MEK1 (Homo sapiens, UniProt Q02750); assay: as above
T3 construct: purchased Reaction Biology Corp. (Kinase HotSpot service)

ALK = molecular target: T4, ALK (Homo sapiens, UniProt Q9UM73); assay: as above
T4 construct: purchased Reaction Biology Corp. (Kinase HotSpot service)

CAMKK1 = molecular target: T5, CAMKK1 (Homo sapiens, UniProt Q8N5S9); assay: as above
T5 construct: purchased Reaction Biology Corp. (Kinase HotSpot service)
T5 sequence (Q8N5S9 whole entry): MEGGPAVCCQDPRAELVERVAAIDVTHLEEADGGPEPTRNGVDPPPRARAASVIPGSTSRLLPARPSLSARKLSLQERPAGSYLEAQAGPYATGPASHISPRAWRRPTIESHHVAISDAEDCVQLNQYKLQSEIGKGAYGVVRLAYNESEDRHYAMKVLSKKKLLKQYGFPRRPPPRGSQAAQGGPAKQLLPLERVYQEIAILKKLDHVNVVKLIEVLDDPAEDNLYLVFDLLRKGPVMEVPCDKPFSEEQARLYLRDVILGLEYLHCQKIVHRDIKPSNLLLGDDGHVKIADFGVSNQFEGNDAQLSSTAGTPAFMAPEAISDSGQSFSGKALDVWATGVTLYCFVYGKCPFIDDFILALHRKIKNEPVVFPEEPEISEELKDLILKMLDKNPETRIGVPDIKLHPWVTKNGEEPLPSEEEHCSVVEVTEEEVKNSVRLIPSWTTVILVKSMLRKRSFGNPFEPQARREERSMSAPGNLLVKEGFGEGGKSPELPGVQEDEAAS

RIPK3 = molecular target: T6, RIPK3 (Homo sapiens, UniProt Q9Y572); assay: as above; conditions: 10 µM
T6 construct: purchased Reaction Biology Corp. (Kinase HotSpot service)

ABL1 = molecular target: T7, ABL1 (Homo sapiens, UniProt P00519); assay: as above
T7 construct: purchased Reaction Biology Corp. (Kinase HotSpot service)

FLT3-ITD = FLT3-ITD (Homo sapiens, UniProt P36888, ITD); assay: as above
Aurora A = molecular target: T8, Aurora A (Homo sapiens, UniProt O14965); assay: as above
T8 construct: purchased Reaction Biology Corp. (Kinase HotSpot service)
T8 sequence (O14965 whole entry): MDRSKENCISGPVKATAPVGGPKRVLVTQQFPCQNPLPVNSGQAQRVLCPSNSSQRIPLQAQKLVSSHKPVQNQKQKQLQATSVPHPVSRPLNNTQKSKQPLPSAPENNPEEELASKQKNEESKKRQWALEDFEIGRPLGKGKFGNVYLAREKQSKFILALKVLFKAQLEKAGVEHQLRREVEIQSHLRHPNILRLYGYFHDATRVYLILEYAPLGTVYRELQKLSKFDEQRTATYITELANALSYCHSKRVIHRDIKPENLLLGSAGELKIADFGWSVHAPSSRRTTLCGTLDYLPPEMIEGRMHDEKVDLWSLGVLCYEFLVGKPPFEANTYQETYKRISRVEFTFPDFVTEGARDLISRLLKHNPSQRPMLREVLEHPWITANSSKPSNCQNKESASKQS

LCK = molecular target: T9, LCK (Homo sapiens, UniProt P06239); assay: as above
T9 construct: purchased Reaction Biology Corp. (Kinase HotSpot service)

BRAF (V599E) = molecular target: T10, BRAF (V599E) (Homo sapiens, UniProt P15056, V600E); assay: as above
T10 construct: purchased Reaction Biology Corp. (Kinase HotSpot service)

FLT3 = molecular target: T11, FLT3 (Homo sapiens, UniProt P36888); assay: as above
T11 construct: purchased Reaction Biology Corp. (Kinase HotSpot service)
T11 sequence (P36888 27-993): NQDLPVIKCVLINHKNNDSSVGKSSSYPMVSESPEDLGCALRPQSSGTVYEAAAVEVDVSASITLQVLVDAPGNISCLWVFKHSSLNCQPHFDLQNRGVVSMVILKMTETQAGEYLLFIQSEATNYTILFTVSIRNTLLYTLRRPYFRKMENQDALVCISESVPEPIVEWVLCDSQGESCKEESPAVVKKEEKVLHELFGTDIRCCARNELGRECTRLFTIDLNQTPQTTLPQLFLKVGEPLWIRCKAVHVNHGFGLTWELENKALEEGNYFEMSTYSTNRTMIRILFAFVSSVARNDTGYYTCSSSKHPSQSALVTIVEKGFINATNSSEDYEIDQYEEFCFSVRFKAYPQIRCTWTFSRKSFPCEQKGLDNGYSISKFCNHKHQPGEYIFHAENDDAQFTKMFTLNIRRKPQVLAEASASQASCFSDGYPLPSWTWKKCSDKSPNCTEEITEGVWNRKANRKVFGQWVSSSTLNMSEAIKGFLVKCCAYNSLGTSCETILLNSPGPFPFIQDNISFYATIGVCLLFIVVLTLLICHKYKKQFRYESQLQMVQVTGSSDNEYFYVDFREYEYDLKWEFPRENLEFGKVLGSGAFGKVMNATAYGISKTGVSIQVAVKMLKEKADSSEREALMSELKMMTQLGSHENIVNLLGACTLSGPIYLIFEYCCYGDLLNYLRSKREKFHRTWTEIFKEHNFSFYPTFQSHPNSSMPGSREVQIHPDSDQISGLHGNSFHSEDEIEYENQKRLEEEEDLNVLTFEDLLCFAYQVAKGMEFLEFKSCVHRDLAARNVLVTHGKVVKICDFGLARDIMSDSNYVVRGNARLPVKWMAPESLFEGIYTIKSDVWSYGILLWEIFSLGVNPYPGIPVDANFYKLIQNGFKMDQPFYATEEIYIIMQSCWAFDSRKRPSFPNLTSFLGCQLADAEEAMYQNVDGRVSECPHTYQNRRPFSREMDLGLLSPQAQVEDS

c-Src = molecular target: T12, c-Src (Homo sapiens, UniProt P12931); assay: as above
T12 construct: purchased Reaction Biology Corp. (Kinase HotSpot service)
T12 sequence (P12931 whole entry): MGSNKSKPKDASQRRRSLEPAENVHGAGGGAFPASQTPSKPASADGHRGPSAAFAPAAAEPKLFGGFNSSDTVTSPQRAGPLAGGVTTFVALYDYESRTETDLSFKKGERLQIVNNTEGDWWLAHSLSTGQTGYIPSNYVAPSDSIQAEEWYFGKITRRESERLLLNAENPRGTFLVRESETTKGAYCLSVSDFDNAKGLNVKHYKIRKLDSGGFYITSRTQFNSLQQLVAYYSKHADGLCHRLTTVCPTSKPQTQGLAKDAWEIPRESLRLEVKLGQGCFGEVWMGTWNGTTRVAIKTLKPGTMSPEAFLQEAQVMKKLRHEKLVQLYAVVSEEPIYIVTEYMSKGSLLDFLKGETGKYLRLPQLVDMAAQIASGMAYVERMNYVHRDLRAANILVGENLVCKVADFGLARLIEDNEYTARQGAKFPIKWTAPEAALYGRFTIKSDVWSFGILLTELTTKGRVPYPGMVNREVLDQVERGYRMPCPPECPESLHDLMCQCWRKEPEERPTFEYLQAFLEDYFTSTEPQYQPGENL

FLT3 (F594_R595 ins EY) = FLT3 (F594_R595 ins EY) (Homo sapiens, UniProt P36888); assay: Enzymatic activity against FLT3 mutants
ERK1 = molecular target: T13, ERK1 (Homo sapiens, UniProt P27361); assay: Reaction Biology Kinase HotSpot radiometric kinase assay; conditions: 10 µM
T13 construct: purchased Reaction Biology Corp. (Kinase HotSpot service)

AXL (R499C) = molecular target: T14, AXL (R499C) (Homo sapiens, UniProt P30530, R499C); assay: as above
T14 construct: purchased Reaction Biology Corp. (Kinase HotSpot service)
T14 sequence (P30530 26-894 R499C): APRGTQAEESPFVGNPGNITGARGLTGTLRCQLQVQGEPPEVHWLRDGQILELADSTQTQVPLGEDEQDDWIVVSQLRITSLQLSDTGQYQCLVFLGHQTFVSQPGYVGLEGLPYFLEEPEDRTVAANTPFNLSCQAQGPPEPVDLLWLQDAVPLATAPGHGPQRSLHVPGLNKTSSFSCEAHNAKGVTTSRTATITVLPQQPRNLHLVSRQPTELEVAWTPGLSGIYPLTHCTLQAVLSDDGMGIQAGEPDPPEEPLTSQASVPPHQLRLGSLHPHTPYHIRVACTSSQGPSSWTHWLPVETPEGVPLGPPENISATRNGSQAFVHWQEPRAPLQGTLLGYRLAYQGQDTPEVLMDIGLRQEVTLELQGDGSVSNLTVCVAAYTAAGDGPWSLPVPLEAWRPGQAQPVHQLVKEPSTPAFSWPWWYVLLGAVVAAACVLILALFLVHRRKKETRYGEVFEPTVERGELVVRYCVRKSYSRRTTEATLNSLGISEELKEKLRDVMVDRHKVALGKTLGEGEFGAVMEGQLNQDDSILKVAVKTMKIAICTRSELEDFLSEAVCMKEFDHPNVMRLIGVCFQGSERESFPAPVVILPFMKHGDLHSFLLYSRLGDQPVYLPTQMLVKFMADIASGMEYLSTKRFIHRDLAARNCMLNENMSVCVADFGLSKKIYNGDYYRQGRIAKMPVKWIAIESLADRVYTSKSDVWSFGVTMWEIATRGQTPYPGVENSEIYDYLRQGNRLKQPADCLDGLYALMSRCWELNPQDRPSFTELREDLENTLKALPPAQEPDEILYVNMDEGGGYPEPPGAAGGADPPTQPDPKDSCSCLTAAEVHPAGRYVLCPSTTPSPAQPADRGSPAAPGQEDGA

PKA = molecular target: T15, PKA (Homo sapiens, UniProt P17612); assay: as above
T15 construct: purchased Reaction Biology Corp. (Kinase HotSpot service)

RON/MST1R = molecular target: T16, RON/MST1R (Homo sapiens, UniProt Q04912); assay: as above
T16 construct: purchased Reaction Biology Corp. (Kinase HotSpot service)
T16 sequence (Q04912 25-1400): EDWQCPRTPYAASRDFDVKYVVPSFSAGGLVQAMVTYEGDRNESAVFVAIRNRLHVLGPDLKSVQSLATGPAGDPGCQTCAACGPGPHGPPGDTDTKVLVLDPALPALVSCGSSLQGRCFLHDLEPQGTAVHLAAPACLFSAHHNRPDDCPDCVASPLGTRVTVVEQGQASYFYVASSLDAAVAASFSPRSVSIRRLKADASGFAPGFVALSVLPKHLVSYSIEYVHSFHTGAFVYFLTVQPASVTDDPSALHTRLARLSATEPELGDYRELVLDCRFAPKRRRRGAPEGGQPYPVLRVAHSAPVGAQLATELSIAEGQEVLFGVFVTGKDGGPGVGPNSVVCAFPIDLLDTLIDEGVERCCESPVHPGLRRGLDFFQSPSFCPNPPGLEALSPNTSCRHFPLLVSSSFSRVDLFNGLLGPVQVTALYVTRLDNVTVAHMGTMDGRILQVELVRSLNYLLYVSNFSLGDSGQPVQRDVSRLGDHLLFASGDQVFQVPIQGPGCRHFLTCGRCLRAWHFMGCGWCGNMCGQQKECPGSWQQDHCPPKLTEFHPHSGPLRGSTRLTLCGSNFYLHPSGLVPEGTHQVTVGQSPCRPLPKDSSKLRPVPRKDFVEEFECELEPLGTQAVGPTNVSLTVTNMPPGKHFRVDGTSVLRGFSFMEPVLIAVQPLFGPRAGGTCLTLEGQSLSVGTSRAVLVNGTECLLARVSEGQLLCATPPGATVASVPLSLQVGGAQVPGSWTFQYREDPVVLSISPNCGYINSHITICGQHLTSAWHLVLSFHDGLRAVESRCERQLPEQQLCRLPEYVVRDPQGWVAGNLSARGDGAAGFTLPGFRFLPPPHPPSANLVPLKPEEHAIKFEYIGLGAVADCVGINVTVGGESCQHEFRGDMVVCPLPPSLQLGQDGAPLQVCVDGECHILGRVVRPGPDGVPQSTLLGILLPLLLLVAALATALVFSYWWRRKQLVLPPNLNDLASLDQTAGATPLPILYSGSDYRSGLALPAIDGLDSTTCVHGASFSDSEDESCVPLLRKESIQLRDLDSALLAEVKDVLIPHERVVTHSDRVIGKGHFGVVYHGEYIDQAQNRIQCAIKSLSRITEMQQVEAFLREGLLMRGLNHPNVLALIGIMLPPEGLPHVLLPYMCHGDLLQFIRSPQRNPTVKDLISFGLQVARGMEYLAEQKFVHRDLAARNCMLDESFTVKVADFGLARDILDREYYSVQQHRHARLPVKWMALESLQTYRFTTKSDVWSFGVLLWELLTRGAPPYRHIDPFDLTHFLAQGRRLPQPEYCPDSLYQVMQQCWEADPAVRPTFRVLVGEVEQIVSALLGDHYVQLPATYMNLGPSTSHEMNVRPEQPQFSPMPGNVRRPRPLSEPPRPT

CDK4/cyclin D1 = molecular target: T17, CDK4/cyclin D1 (Homo sapiens, UniProt P11802); assay: as above
T17 construct: purchased Reaction Biology Corp. (Kinase HotSpot service)
T17 sequence (P11802 whole entry): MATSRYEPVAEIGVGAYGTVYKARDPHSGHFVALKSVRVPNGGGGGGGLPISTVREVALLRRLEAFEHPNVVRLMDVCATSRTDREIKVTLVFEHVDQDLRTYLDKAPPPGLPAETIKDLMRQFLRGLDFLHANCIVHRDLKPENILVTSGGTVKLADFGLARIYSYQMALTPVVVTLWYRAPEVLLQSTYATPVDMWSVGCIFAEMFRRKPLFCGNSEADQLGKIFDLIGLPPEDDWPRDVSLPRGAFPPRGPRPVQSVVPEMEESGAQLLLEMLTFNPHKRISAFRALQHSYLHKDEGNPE
T17 sequence (P24385 whole entry partner): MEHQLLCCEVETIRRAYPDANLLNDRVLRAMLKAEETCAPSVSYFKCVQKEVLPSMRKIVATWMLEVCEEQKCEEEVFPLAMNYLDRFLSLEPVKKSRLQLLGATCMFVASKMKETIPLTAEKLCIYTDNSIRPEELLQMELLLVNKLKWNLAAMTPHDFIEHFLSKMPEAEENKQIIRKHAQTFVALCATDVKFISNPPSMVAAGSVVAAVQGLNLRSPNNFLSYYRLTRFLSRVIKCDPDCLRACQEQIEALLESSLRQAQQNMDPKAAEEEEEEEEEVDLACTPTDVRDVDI

ROS/ROS1 = molecular target: T18, ROS/ROS1 (Homo sapiens, UniProt P08922); assay: as above
T18 construct: purchased Reaction Biology Corp. (Kinase HotSpot service)

AXL = molecular target: T19, AXL (Homo sapiens, UniProt P30530); assay: as above
T19 construct: purchased Reaction Biology Corp. (Kinase HotSpot service)
T19 sequence (P30530 26-894): as the sequence (P30530 26-894 R499C) above, with C474R counted along it

P38a/MAPK14 = P38a/MAPK14 (Homo sapiens, UniProt Q16539); assay: as above
AKT1 = molecular target: T20, AKT1 (Homo sapiens, UniProt P31749); assay: as above
T20 construct: purchased Reaction Biology Corp. (Kinase HotSpot service)
T20 sequence (P31749 whole entry): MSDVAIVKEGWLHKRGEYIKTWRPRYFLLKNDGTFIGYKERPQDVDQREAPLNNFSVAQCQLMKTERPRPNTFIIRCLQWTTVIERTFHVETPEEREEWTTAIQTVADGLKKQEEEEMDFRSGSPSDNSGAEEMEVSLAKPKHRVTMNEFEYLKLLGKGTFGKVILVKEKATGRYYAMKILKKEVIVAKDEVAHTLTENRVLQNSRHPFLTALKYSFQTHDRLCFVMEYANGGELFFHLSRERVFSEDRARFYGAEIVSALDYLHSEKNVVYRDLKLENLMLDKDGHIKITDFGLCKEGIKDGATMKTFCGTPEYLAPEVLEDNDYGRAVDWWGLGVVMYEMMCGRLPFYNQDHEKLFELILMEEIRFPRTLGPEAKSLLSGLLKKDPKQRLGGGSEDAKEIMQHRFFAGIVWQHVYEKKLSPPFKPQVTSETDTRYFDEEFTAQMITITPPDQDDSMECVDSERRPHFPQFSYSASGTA

Compound Cc1oncc1C(=O)Nc1ccc2cnc(-c3cc(N4CCN(C)CC4)cc(C(F)(F)F)c3)nc2c1 [Compound 7d, 5-methyl-N-(2-(3-(4-methylpiperazin-1-yl)-5-(trifluoromethyl)phenyl)quinazolin-7-yl)isoxazole-4-carboxamide] has an IC50 (FLT3 (F594_R595 ins R)) of 0.524 µM, an inhibition at 10 µM (c-Kit) of 0% and an inhibition at 10 µM (MEK1) of 0%. The inhibition at 10 µM (ALK) was 17%, the inhibition at 10 µM (CAMKK1) was 0% and the inhibition at 10 µM (RIPK3) was 12.8%. The inhibition at 10 µM (ABL1) was 6.46%, the inhibition at 10 µM (FLT3-ITD; FLT3-ITD, 10 µM) was 95.2% and the IC50 (FLT3-ITD; read-out: IC50 against FLT3-ITD) was 0.301 µM. For the same compound, the inhibition at 10 µM (Aurora A) was 20.1%, the inhibition at 10 µM (LCK) was 19.7% and the inhibition at 10 µM (BRAF (V599E)) was 5.19%. The inhibition at 10 µM (FLT3) was 96.6%, the “inhibitory activity towards FLT3 (in words)” value (FLT3) was “maintained the activity; also recorded: maintained inhibitory activity” and the IC50 (FLT3; FLT3 wild type, read-out: IC50 against FLT3) was 0.106 µM. The inhibition at 10 µM (c-Src) was 14.6%, the IC50 (FLT3 (F594_R595 ins EY)) was 0.495 µM and the inhibition at 10 µM (ERK1) was 15%. For the same compound, the inhibition at 10 µM (AXL (R499C)) was 10.1%, the inhibition at 10 µM (PKA) was 2.5% and the inhibition at 10 µM (RON/MST1R) was 13.5%. It also gave an inhibition at 10 µM (CDK4/cyclin D1) of 3.01%, an inhibition at 10 µM (ROS/ROS1) of 14.4% and an inhibition at 10 µM (AXL) of 21.2%. The inhibition at 10 µM (P38a/MAPK14) was 0% and the inhibition at 10 µM (AKT1) was 5.48%.
